Columns and labels:
Experiment in all cases: Test G pre/postemergence
Assay type in all cases: in vivo
[1] = tested on: bermudagrass (Cynodon dactylon)
Procedure, shortened: (§1)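 Test chemicals in non-phytotoxic solvent with surfactant applied preemergence to sown seeds or nutlets and postemergence to plants 2–18 cm tall (1- to 4-leaf stage). Greenhouse-held 12–21 days, then visually rated against untreated controls on a 0 (no effect) to 100 (complete control) scale.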

[2] = tested on: common chickweed (Stellaria media)
Procedure, shortened: as §1

[3] = tested on: common purslane (Portulaca oleracea)
Procedure, shortened: as §1

[4] = tested on: common sowthistle (Sonchus oleraceous)
Procedure, shortened: as §1

[5] = tested on: green foxtail (Setaria viridis)
Procedure, shortened: as §1

[6] = tested on: large crabgrass (Digitaria sanguinalis)
Procedure, shortened: as §1

[7] = tested on: pitted morningglory (Ipomoea lacunosa)
Procedure, shortened: as §1

[8] = tested on: prickly sida (Sida spinosa)
Procedure, shortened: as §1

[9] = tested on: purple nutsedge (Cyperus rotundus)
Procedure, shortened: as §1

[10] = Postemergence, 250 g ai/ha, scale 0 to 100
[11] = Postemergence, 16 g ai/ha, scale 0 to 100
[12] = Postemergence, 31 g ai/ha, scale 0 to 100
[13] = Postemergence, 62 g ai/ha, scale 0 to 100
[14] = Postemergence, 125 g ai/ha, scale 0 to 100
[15] = Preemergence, 16 g ai/ha, scale 0-100
[16] = Preemergence, 31 g ai/ha, scale 0-100
[17] = Preemergence, 62 g ai/ha, scale 0-100
[18] = Preemergence, 125 g ai/ha, scale 0-100
[19] = Preemergence, 250 g ai/ha, scale 0-100

What does the source list for Nc1nc(C2CC2)nc(C(=O)OCc2ccccc2)c1Br [Compound 22, phenylmethyl 6-amino-5-bromo-2-cyclopropyl-4-pyrimidinecarboxylate]?
Plant response rating, Bermudagrass [1, 10]: 65; Plant response rating, Bermudagrass [1, 11]: 15; Plant response rating, Bermudagrass [1, 12]: 35; Plant response rating, Bermudagrass [1, 13]: 35; Plant response rating, Bermudagrass [1, 14]: 40; Plant response rating, Bermudagrass [1, 15]: 0; Plant response rating, Bermudagrass [1, 16]: 0; Plant response rating, Bermudagrass [1, 17]: 0; Plant response rating, Bermudagrass [1, 18]: 0; Plant response rating, Bermudagrass [1, 19]: 30; Plant response rating, Chickweed [2, 10]: 95; Plant response rating, Chickweed [2, 12]: 50; Plant response rating, Chickweed [2, 13]: 50; Plant response rating, Chickweed [2, 14]: 85; Plant response rating, Chickweed [2, 15]: 0; Plant response rating, Chickweed [2, 16]: 50; Plant response rating, Chickweed [2, 18]: 90; Plant response rating, Chickweed [2, 19]: 100; Plant response rating, Purslane [3, 10]: 98; Plant response rating, Purslane [3, 11]: 50; Plant response rating, Purslane [3, 12]: 55; Plant response rating, Purslane [3, 13]: 85; Plant response rating, Purslane [3, 14]: 95; Plant response rating, Purslane [3, 15]: 0; Plant response rating, Purslane [3, 16]: 0; Plant response rating, Purslane [3, 17]: 50; Plant response rating, Purslane [3, 18]: 70; Plant response rating, Purslane [3, 19]: 75; Plant response rating, Sowthistle [4, 10]: 100; Plant response rating, Sowthistle [4, 11]: 75; Plant response rating, Sowthistle [4, 12]: 85; Plant response rating, Sowthistle [4, 13]: 95; Plant response rating, Sowthistle [4, 14]: 100; Plant response rating, Sowthistle [4, 15]: 35; Plant response rating, Sowthistle [4, 16]: 75; Plant response rating, Sowthistle [4, 17]: 90; Plant response rating, Sowthistle [4, 18]: 100; Plant response rating, Sowthistle [4, 19]: 100; Plant response rating, Foxtail, Green [5, 10]: 75; Plant response rating, Foxtail, Green [5, 11]: 0; Plant response rating, Foxtail, Green [5, 12]: 15; Plant response rating, Foxtail, Green [5, 13]: 25; Plant response rating, Foxtail, Green [5, 14]: 50; Plant response rating, Foxtail, Green [5, 15]: 0; Plant response rating, Foxtail, Green [5, 16]: 0; Plant response rating, Foxtail, Green [5, 17]: 0; Plant response rating, Foxtail, Green [5, 18]: 10; Plant response rating, Foxtail, Green [5, 19]: 20; Plant response rating, Crabgrass, Large [6, 10]: 85; Plant response rating, Crabgrass, Large [6, 11]: 15; Plant response rating, Crabgrass, Large [6, 12]: 35; Plant response rating, Crabgrass, Large [6, 13]: 50; Plant response rating, Crabgrass, Large [6, 14]: 85; Plant response rating, Crabgrass, Large [6, 15]: 0; Plant response rating, Crabgrass, Large [6, 16]: 40; Plant response rating, Crabgrass, Large [6, 17]: 40; Plant response rating, Crabgrass, Large [6, 18]: 80; Plant response rating, Crabgrass, Large [6, 19]: 80; Plant response rating, Morningglory [7, 10]: 100; Plant response rating, Morningglory [7, 11]: 50; Plant response rating, Morningglory [7, 12]: 85; Plant response rating, Morningglory [7, 13]: 85; Plant response rating, Morningglory [7, 14]: 95; Plant response rating, Morningglory [7, 15]: 20; Plant response rating, Morningglory [7, 16]: 50; Plant response rating, Morningglory [7, 17]: 60; Plant response rating, Morningglory [7, 18]: 90; Plant response rating, Morningglory [7, 19]: 90; Plant response rating, Prickly Sida [8, 10]: 95; Plant response rating, Prickly Sida [8, 11]: 75; Plant response rating, Prickly Sida [8, 12]: 85; Plant response rating, Prickly Sida [8, 13]: 90; Plant response rating, Prickly Sida [8, 14]: 95; Plant response rating, Prickly Sida [8, 15]: 50; Plant response rating, Prickly Sida [8, 16]: 50; Plant response rating, Prickly Sida [8, 17]: 65; Plant response rating, Prickly Sida [8, 18]: 80; Plant response rating, Prickly Sida [8, 19]: 95; Plant response rating, Nutsedge, Purple [9, 10]: 15; Plant response rating, Nutsedge, Purple [9, 11]: 0; Plant response rating, Nutsedge, Purple [9, 12]: 0; Plant response rating, Nutsedge, Purple [9, 13]: 0; Plant response rating, Nutsedge, Purple [9, 14]: 0; Plant response rating, Nutsedge, Purple [9, 15]: 0; Plant response rating, Nutsedge, Purple [9, 16]: 0; Plant response rating, Nutsedge, Purple [9, 17]: 30; Plant response rating, Nutsedge, Purple [9, 18]: 40; Plant response rating, Nutsedge, Purple [9, 19]: 50

Reference: patent US8802597B2, “Herbicidal pyrimidines” (E I du Pont de Nemours and Company, priority 2003, dated 2014)
